Test results: US6818413B2, “Fluorescence-based high throughput screening assays for protein kinases and phosphatases” (Pharmacia and Upjohn Company, priority 1997, dated 2004)

Biological target: MBL Monoclonal anti-phosphotyrosine antibody (clone 6D12)
Assay: Competitive displacement of P-Tyr-F from MBL antibody, fluorescence quenching
Format: binding
Details: displacement of P-Tyr-F 1.7 nM from MBL antibody 7.1 nM sites, nM sites (normality), read-out: MBL Monoclonal Kd, nM Φ
Protocol: FIGS. 5A and 5B: […] MBL antibody, 7.1 nM sites and P-Tyr-F, 1.7 nM were preincubated, and displacement initiated by the addition of a concentrated solution of phosphotyrosine. The increase in emission intensity and decrease in FP were monitored as a function of added phosphoryltyrosine. The data were analyzed as described in FIG. 3. FIGS. 7A, 7B, 7C, and 7D: FIGS. 7A, 7B, 7C, and 7D are graphs showing the competitive displacement of P-Tyr-F from MBL antibody by phosphorylated JAK-2 peptide substrates JAK-2(a) (FIGS. 7A and 7B) and JAK-2(b) (FIGS. 7C and 7D). All procedures were as described in FIG. 5. For both peptides, fixed antibody=7.1 nM sites and P-Tyr-F=1.7 nM. Antibody binding to the fluoresceinated phosphorylamino acids was monitored by adding successive small volumes of the antibody stock solution to a cuvette containing a fixed amount of fluoresceinated phosphorylamino acid in two milliliters of pH 7.4 buffer (25 mM Tris and 25 mM NaCl adjusted to pH 7.4 with HCl). The fluorescence polarization, anisotropy, and the intensity—the sum of vertically and horizontally polarized emissions—were recorded one minute after each addition. The dilution produced by the addition of the antibody necessitated a slight correction for both the concentrations and the intensity readings but not for the polarization since the latter is independent of the fluorophore concentration. […]

Compound `NC(Cc1ccc(OP(=O)(O)O)cc1)C(=O)O` (stereo not shown) [Phosphoryltyrosine] has a Kd of 5.4 ± 0.5 nM.
